Experimental data reported in paper PMC3660459 (PLoS ONE, 2013).
Converted amounts (≈) assume the structure as drawn. “And” between values parts separate entries of the source, which are not always exact repeats. Equal values may be shown once.

Columns and labels:
F. tularensis Schu S4 [1] = assay type: cell-based, Francisella tularensis subspecies tularensis Schu S4
F. tularensis Schu S4 [2] = assay: microbe, parasite or virus in culture; assay type: cell-based, Francisella tularensis subspecies tularensis Schu S4; settings: Francisella tularensis, SCHUS4
[3] = molecular target: NH3-dependent NAD^+ synthetase (nadE); settings: read-out: enzymatic IC50; cited from earlier work
B. anthracis Sterne = settings: cited from earlier work

Compound | Growth Inhibition (F. tularensis Schu S4 [1]) | other results
Nc1nc(NC2CC2)c2ncn([C@H]3C=C[C@@H](CO)C3)c2n1 [Compound 1, [n]2(c3nc(nc(c3nc2)NC4CC4)N)[C@@H]1C[C@@H](C = C1)CO] | No | 
O.O.O=C1NC(c2ccccc2)(c2ccccc2)C(=O)N1COP(=O)(O)O [Compound 2, [P]( = O)([O-])([O-])OCN1C( = O)NC(C1 = O)(c3ccccc3)c2ccccc2.O.O] | No | 
CC(c1cc2ccccc2s1)N(O)C(N)=O (centres unmarked) [Compound 3, [s]1c2c(cc1C(N(O)C( = O)N)C)cccc2] | No | 
Cc1ccc(-c2cc(C(F)(F)F)nn2-c2ccc(S(N)(=O)=O)cc2)cc1 [Compound 4, FC(F)(F)c1n[n](c(c1)c3ccc(cc3)C)c2ccc(cc2)[S]( = O)( = O)N] | No | 
O=C1/C(=C\c2ccc(-n3ccnc3)cc2)Oc2cc(O)ccc21 [Compound 5, [n]4(cncc4)c1ccc(cc1)\C = C2\Oc3c(ccc(c3)O)C\2 = O] | showed activity against the bacteria and Yes | Toxicity (RAW 264.7 cells): non-toxic; MIC (F. tularensis Schu S4 [2]): > 125 µg/mL
Cc1cc(CC(N)C(=O)O)on1 (centres unmarked) [Compound 6, NC(Cc1[o]nc(c1)C)C( = O)O] | No | 
NC(Cc1ccc(Br)s1)C(=O)O (centres unmarked) [Compound 7, [s]1c(ccc1CC(N)C( = O)O)Br] | No | 
C=C(O[C@@H]1C=C(C(=O)O)C=C[C@H]1O)C(=O)O [Compound 8, O([C@H]1[C@@H](C = CC( = C1)C( = O)O)O)C( = C)C( = O)O] | No | 
O=C1NN(c2cccc(Br)c2)C(=O)/C1=C\c1ccc(-c2ccccc2C(=O)O)o1 [Compound 9, Brc1cc(ccc1)N2NC( = O)\C( = C\c3[o]c(cc3)c4c(cccc4)C( = O)O)\C2 = O] | No | 
NC(=O)c1ccc(-c2ccc(/C=C3/C(=O)NN(c4ccc(F)cc4)C3=O)o2)cc1 [Compound 10, Fc1ccc(cc1)N2NC( = O)\C( = C\c3[o]c(cc3)c4ccc(cc4)C( = O)N)\C2 = O] | No | 
COc1cc(C=O)ccc1OCc1ccccc1COc1ccc(/C=C2/SC(=S)NC2=O)cc1OC [Compound 11, S1\C( = C\c2cc(c(cc2)OCc3c(cccc3)COc4c(cc(cc4)C = O)OC)OC)\C( = O)NC1 = S] | No | 
O=Cc1cnn2c(=O)c3ccccc3[nH]c12 [Compound 12, [n]21ncc(c2Nc3c(cccc3)C1 = O)C = O] | showed activity against the bacteria and Yes | MIC (F. tularensis Schu S4 [2]): 63 µg/mL (≈ 296 µM)
Cc1nn2c(=O)c3ccccc3[nH]c2c1C=O [Compound 13, [n]21nc(c(c2Nc3c(cccc3)C1 = O)C = O)C] | showed activity against the bacteria and Yes | Toxicity (RAW 264.7 cells): non-toxic; MIC (F. tularensis Schu S4 [2]): > 125 µg/mL and ~400 µM
Cc1cc(Nc2ccccc2)n(C(=O)c2ccc(Cl)cc2)n1 [Compound 14, Clc1ccc(cc1)C( = O)[n]2nc(cc2Nc3ccccc3)C] | showed activity against the bacteria and Yes | Reduction of growth versus no-compound control (F. tularensis Schu S4 [1]): completely abolished bacterial growth; MIC (F. tularensis Schu S4 [2]): 4 µg/mL (≈ 12.8 µM)
Nc1ccccc1CN1C(=O)c2ccccc2C1=O [Compound 15, N2(C( = O)c3c(cccc3)C2 = O)Cc1c(cccc1)N] | No | 
N#Cc1ccc(Oc2ccccc2O)c(F)c1 [Compound 16, Fc1c(ccc(c1)C#N)Oc2c(cccc2)O] | No | 
NC(=O)c1ccc(Oc2ccccc2O)c(F)c1 [Compound 17, Fc1c(ccc(c1)C( = O)N)Oc2c(cccc2)O] | No | 
Cc1cc2ccccc2n1CC(=O)NCc1cccnc1N(C)C [Compound 18, [n]2(c3c(cc2C)cccc3)CC( = O)NCc1c(nccc1)N(C)C] | No | 
Nc1nc(O)c2nc(CNc3ccc(C(=O)O)cc3)cnc2n1 [Compound 19, N(Cc2nc3c(nc(nc3O)N)nc2)c1ccc(cc1)C( = O)O] | No | 
Nc1nc(N)c2nc(CNc3ccc(C(=O)O)cc3)cnc2n1 [Compound 20, N(Cc2nc3c(nc(nc3N)N)nc2)c1ccc(cc1)C( = O)[O-]] | No | 

Compound | Growth Inhibition (F. tularensis Schu S4 [1]) | other results
NC(=O)c1nc[nH]c1C(N)=O [Compound 21, [nH]1cnc(c1C( = O)N)C( = O)N] | No | 
O=[N+]([O-])c1ccc(NC2OC(CO)C(O)C(O)C2O)cc1 (centres unmarked) [Compound 22, [N+]( = O)([O-])c1ccc(cc1)NC2OC(C(C(C2O)O)O)CO] | No | 
Cc1ccc(OC2OC(CO)C(O)C(O)C2O)cc1C (centres unmarked) [Compound 23, O1C(C(C(C(C1CO)O)O)O)Oc2cc(c(cc2)C)C] | No | 
OCC1OC(Oc2ccc(Cl)cc2Cl)C(O)C(O)C1O (centres unmarked) [Compound 24, Clc1c(ccc(c1)Cl)OC2OC(C(C(C2O)O)O)CO] | showed activity against the bacteria and Yes | Toxicity (RAW 264.7 cells): non-toxic; MIC (F. tularensis Schu S4 [2]): > 125 µg/mL and ~400 µM
CCOc1ccc(NC2OC(CO)C(O)C(O)C2O)cc1 (centres unmarked) [Compound 25, N(C2OC(C(C(C2O)O)O)CO)c1ccc(cc1)OCC] | No | 
OCC1OC(Nc2ccccc2)C(O)C(O)C1O (centres unmarked) [Compound 26, N(C2OC(C(C(C2O)O)O)CO)c1ccccc1] | No | 
O[C@@H]1[C@@H](O)[C@H](Nc2ccc(Br)cc2)OC[C@H]1O [Compound 27, Brc1ccc(cc1)N[C@@H]2OC[C@H]([C@@H]([C@H]2O)O)O] | No | 
NC(=O)c1ncn([C@@H]2O[C@H](CO)[C@@H](O)[C@H]2O)c1O [Compound 28, [n]2(cnc(c2O)C( = O)N)[C@@H]1O[C@@H]([C@H]([C@H]1O)O)CO] | No | 
Cc1ccc(NC2OCC(O)C(O)C2O)cc1 (centres unmarked) [Compound 29, N(C2OCC(C(C2O)O)O)c1ccc(cc1)C] | No | 
NC(=O)c1ncn([C@@H]2O[C@H](CO)C(O)C2O)c1N (some centres unmarked) [Compound 30, [n]2(cnc(c2N)C( = O)N)[C@@H]1O[C@@H](C(C1O)O)CO] | No | 
CCOC(=O)c1cc2c(nc1C(=O)OCC)CCCC2=O [Compound 31, n1c2c(cc(c1C( = O)OCC)C( = O)OCC)C( = O)CCC2] | No | 
NC(=O)COc1cccnc1C(=O)O [Compound 32, NC( = O)COc1c(nccc1)C( = O)O] | No | 
COc1ccc([C@@H]2CC(=O)c3c(O)cc(O)cc3O2)cc1O [Compound 33, O1[C@@H](CC( = O)c3c1cc(cc3O)O)c2cc(c(cc2)OC)O] | No | 
CC(C)[C@H](N)C(=O)OCCOCn1cnc2c(O)nc(N)nc21 [Compound 34, [n]1(c2nc(nc(c2nc1)O)N)COCCOC( = O)[C@@H](N)C(C)C] | No | 
O=[N+]([O-])c1ccc(O)c(/C=N/c2cccc(O)c2)c1 [Compound 35, [N+]( = O)([O-])c1cc(c(cc1)O)\C = N\c2cc(ccc2)O] | showed activity against the bacteria and Yes | Reduction of growth versus no-compound control (F. tularensis Schu S4 [1]): completely abolished bacterial growth; IC50 [3]: 2500 nM; MIC (F. tularensis Schu S4 [2]): 32 µg/mL (≈ 124 µM); MIC (B. anthracis Sterne): > 387 µM
O=C(Cn1cc(/C=C/c2nc(O)nc(O)c2[N+](=O)[O-])c2ccccc21)Nc1ccc(F)cc1 [Compound 36, Fc1ccc(cc1)NC( = O)C[n]2c3c(c(c2)\C = C\c4nc(nc(c4[N+]( = O)[O-])O)O)cccc3] | No | 
CC1(C)S[C@@H]2[C@H](NC(=O)COc3ccccc3)C(=O)N2[C@H]1C(=O)O [Compound 37, S1[C@H]2N([C@H](C1(C)C)C( = O)[O-])C( = O)[C@H]2NC( = O)COc3ccccc3] | No | 
CC1=CC(O)(c2ccccc2)N(C(=O)c2ccncc2)N1 (centres unmarked) [Compound 39, N2(NC( = CC2(O)c3ccccc3)C)C( = O)c1ccncc1] | No | 
COc1ccc(C2(O)C=C(C)NN2C(=O)c2ccccc2)cc1 (centres unmarked) [Compound 40, N2(NC( = CC2(O)c3ccc(cc3)OC)C)C( = O)c1ccccc1] | No | 
N2(NC( = CC2(O)c3cc(ccc3)OC)CC)C( = O)c1ccccc1 [Compound 38] | No | 
